Assay results published in ChEMBL document CHEMBL4422664, “2-Benzoylbenzofuran derivatives possessing piperazine linker as anticancer agents” (Bioorg Med Chem Lett, 2019).

Assays:
[1] = tested on: HeLa; assay: Cytotoxicity against human HeLa assessed as reduction in cell viability after 48 hrs by MTT assay; type: functional, cell-based
[2] = tested on: SGC-7901; assay: Cytotoxicity against human SGC7901 assessed as reduction in cell viability after 48 hrs by MTT assay; type: functional, cell-based; conditions: SGC-7901, 48 h
[3] = tested on: A549; assay: Cytotoxicity against human A549 assessed as reduction in cell viability after 48 hrs by MTT assay; type: functional, cell-based; conditions: A549, 48 h
[4] = tested on: MCF7; assay: Cytotoxicity against human MCF7 assessed as reduction in cell viability after 48 hrs by MTT assay; type: functional, cell-based; conditions: MCF7, 48 h
[5] = tested on: HCT-116; assay: Cytotoxicity against human HCT116 assessed as reduction in cell viability after 48 hrs by MTT assay; type: functional, cell-based; conditions: HCT-116, 48 h
[6] = tested on: L02; assay: Cytotoxicity against human L02 assessed as reduction in cell viability after 48 hrs by MTT assay; type: cell-based; conditions: L02, 48 h
[7] = tested on: A549; assay: Induction of apoptosis in human A549 assessed as late apoptotic cells at 1 uM after 24 to 48 hrs by Annexin V/propidium iodide staining-based flow cytometric analysis (reference value: 0.54%); type: functional
[8] = tested on: A549; assay: Induction of apoptosis in human A549 assessed as necrotic cells at 2 uM after 24 to 48 hrs by Annexin V/propidium iodide staining-based flow cytometric analysis (reference value: 0.16%); type: functional
[9] = tested on: A549; assay: Induction of apoptosis in human A549 assessed as viable cells at 2 uM after 24 to 48 hrs by Annexin V/propidium iodide staining-based flow cytometric analysis (reference value: 98.5%); type: functional; conditions: read-out: Activity
[10] = tested on: A549; assay: Induction of apoptosis in human A549 assessed as viable cells at 1 uM after 24 to 48 hrs by Annexin V/propidium iodide staining-based flow cytometric analysis (reference value: 98.5%); type: functional; conditions: read-out: Activity
[11] = tested on: A549; assay: Induction of apoptosis in human A549 assessed as necrotic cells at 1 uM after 24 to 48 hrs by Annexin V/propidium iodide staining-based flow cytometric analysis (reference value: 0.16%); type: functional
[12] = tested on: A549; assay: Induction of apoptosis in human A549 assessed as early apoptotic cells at 1 uM after 24 to 48 hrs by Annexin V/propidium iodide staining-based flow cytometric analysis (reference value: 0.79%); type: functional
[13] = tested on: A549; assay: Induction of apoptosis in human A549 assessed as early apoptotic cells after 24 to 48 hrs by Annexin V/propidium iodide staining-based flow cytometric analysis; type: functional, cell-based
[14] = tested on: A549; assay: Induction of apoptosis in human A549 assessed as early apoptotic cells at 2 uM after 24 to 48 hrs by Annexin V/propidium iodide staining-based flow cytometric analysis (reference value: 0.79%); type: functional
[15] = tested on: A549; assay: Induction of apoptosis in human A549 assessed as late apoptotic cells at 2 uM after 24 to 48 hrs by Annexin V/propidium iodide staining-based flow cytometric analysis (reference value: 0.54%); type: functional

| SMILES | IC50 [1] [µM] | IC50 [2] [µM] | IC50 [3] [µM] | IC50 [4] [µM] | IC50 [5] [µM] | IC50 [6] [µM] | Activity [7] [%] | Activity [8] [%] | viability at 2 µM [9] [%] | viability at 1 µM [10] [%] | Activity [11] [%] | Activity [12] [%] | Activity [13] | Activity [14] [%] | Activity [15] [%] |
| --- | --- | --- | --- | --- | --- | --- | --- | --- | --- | --- | --- | --- | --- | --- | --- |
| CCN(CC)c1ccc2cc(C(=O)c3ccc(N4CCN(C(=O)CN5CCN(Cc6ccc(C(F)(F)F)cc6)CC5)CC4)cc3)oc2c1 | > 40 | 32 | 20.1 | 18.2 | > 40 | 6.54 | – | – | – | – | – | – | – | – | – |
| CCN(CC)c1ccc2cc(C(=O)c3ccc(N4CCN(C(=O)CN5CCN(CC(=O)c6ccc(C#N)cc6)CC5)CC4)cc3)oc2c1 | 2.44 | > 40 | 4.57 | 11.9 | > 40 | > 100 | – | – | – | – | – | – | – | – | – |
| CCN(CC)c1ccc2cc(C(=O)c3ccc(N4CCN(C(=O)CN5CCN(S(=O)(=O)C6CC6)CC5)CC4)cc3)oc2c1 | 28.1 | 15.3 | 17.3 | > 40 | > 40 | > 100 | – | – | – | – | – | – | – | – | – |
| CCN(CC)c1ccc2cc(C(=O)c3ccc(N4CCN(C(=O)CN5CCN(Cc6ccc(F)c(F)c6)CC5)CC4)cc3)oc2c1 | 6.4 | 1.78 | 5.44 | 9.22 | 26.3 | 10.2 | – | – | – | – | – | – | – | – | – |
| CCN(CC)c1ccc2cc(C(=O)c3ccc(N4CCN(C(=O)CN5CCN(Cc6ccc(/C=C/C(=O)OC)cc6)CC5)CC4)cc3)oc2c1 | 3.04 | 0.74 | 2.81 | 8.73 | 9.92 | > 100 | 7.98 | 3.87 | 9.27 | 83.3 | 0.82 | 7.95 | Dose-dependent effect | 43.1 | 43.8 |
| CCN(CC)c1ccc2cc(C(=O)c3ccc(N4CCN(C(=O)CN5CCN(CC(C)=O)CC5)CC4)cc3)oc2c1 | 2.76 | 2.21 | 8.92 | 11 | 24 | > 100 | – | – | – | – | – | – | – | – | – |
| CCOC(=O)CN1CCN(CC(=O)N2CCN(c3ccc(C(=O)c4cc5ccc(N(CC)CC)cc5o4)cc3)CC2)CC1 | 22.1 | > 40 | > 40 | > 40 | > 40 | 68.7 | – | – | – | – | – | – | – | – | – |
| O=c1[nH]cc(F)c(=O)[nH]1 [FLUOROURACIL] | 10.7 | 12 | 10.6 | 26.3 | 15.5 | – | – | – | – | – | – | – | – | – | – |
| CCN(CC)c1ccc2cc(C(=O)c3ccc(N4CCN(C(=O)CN5CCN(CC(=O)c6ccc(F)cc6)CC5)CC4)cc3)oc2c1 | 9.64 | 3.44 | 0.57 | 16.7 | 14.2 | 68.4 | – | – | – | – | – | – | – | – | – |
| CCN(CC)c1ccc2cc(C(=O)c3ccc(N4CCN(C(=O)CN5CCN(S(=O)(=O)c6ccc(F)cc6)CC5)CC4)cc3)oc2c1 | 16.7 | > 40 | 33.2 | 20.5 | > 40 | 9.24 | – | – | – | – | – | – | – | – | – |
| CCN(CC)c1ccc2cc(C(=O)c3ccc(N4CCN(C(=O)CN5CCN(C(=O)c6ccc(C(F)(F)F)cc6)CC5)CC4)cc3)oc2c1 | > 40 | > 40 | > 40 | > 40 | > 40 | 14.3 | – | – | – | – | – | – | – | – | – |
| CCN(CC)c1ccc2cc(C(=O)c3ccc(N4CCN(C(=O)CN5CCN(CC(=O)c6ccc7ccccc7c6)CC5)CC4)cc3)oc2c1 | 17.1 | > 40 | 26.3 | > 40 | > 40 | > 100 | – | – | – | – | – | – | – | – | – |
| CCN(CC)c1ccc2cc(C(=O)c3ccc(N4CCN(C(=O)CN5CCN(C(=O)c6ccc(F)cc6)CC5)CC4)cc3)oc2c1 | > 40 | > 40 | > 40 | > 40 | > 40 | > 100 | – | – | – | – | – | – | – | – | – |
| CCN(CC)c1ccc2cc(C(=O)c3ccc(N4CCN(C(=O)CN5CCN(S(=O)(=O)c6ccc(OC(F)(F)F)cc6)CC5)CC4)cc3)oc2c1 | 30.2 | 24.4 | > 40 | 20.1 | 7.68 | 34.7 | – | – | – | – | – | – | – | – | – |
| CCN(CC)c1ccc2cc(C(=O)c3ccc(N4CCN(C(=O)CN5CCN(CC(=O)c6ccc(C)cc6)CC5)CC4)cc3)oc2c1 | 1.68 | > 40 | 0.87 | > 40 | 13.4 | 36.5 | – | – | – | – | – | – | – | – | – |
| CCN(CC)c1ccc2cc(C(=O)c3ccc(N4CCN(C(=O)CN5CCN(S(=O)(=O)c6ccc(C(F)(F)F)cc6)CC5)CC4)cc3)oc2c1 | > 40 | > 40 | > 40 | 17.5 | 32.2 | 17 | – | – | – | – | – | – | – | – | – |
| CCN(CC)c1ccc2cc(C(=O)c3ccc(N4CCN(C(=O)CN5CCN(C(=O)c6cc(Cl)cc(Cl)c6)CC5)CC4)cc3)oc2c1 | 8.11 | 2.72 | 6.74 | 16.1 | 28 | > 100 | – | – | – | – | – | – | – | – | – |
| C#CCN1CCN(CC(=O)N2CCN(c3ccc(C(=O)c4cc5ccc(N(CC)CC)cc5o4)cc3)CC2)CC1 | > 40 | 20.1 | > 40 | > 40 | 17.7 | > 100 | – | – | – | – | – | – | – | – | – |
| CCN(CC)c1ccc2cc(C(=O)c3ccc(N4CCN(C(=O)CN5CCN(Cc6ccc(C#N)cc6)CC5)CC4)cc3)oc2c1 | > 40 | 26.2 | 17.4 | > 40 | > 40 | 29.6 | – | – | – | – | – | – | – | – | – |
| CCN(CC)c1ccc2cc(C(=O)c3ccc(N4CCN(C(=O)CN5CCN(C(=O)/C=C/c6ccccc6)CC5)CC4)cc3)oc2c1 | 5.26 | 1.14 | 9.45 | 13.4 | 6.81 | > 100 | – | – | – | – | – | – | – | – | – |
| CCN(CC)c1ccc2cc(C(=O)c3ccc(N4CCN(C(=O)CN5CCN(CC(=O)c6ccc(OC)cc6)CC5)CC4)cc3)oc2c1 | 15.3 | 8.91 | 4.84 | 16.7 | 17.9 | > 100 | – | – | – | – | – | – | – | – | – |
| CCN(CC)c1ccc2cc(C(=O)c3ccc(N4CCN(C(=O)CN5CCN(C(=O)CCl)CC5)CC4)cc3)oc2c1 | 5.52 | 1.63 | 3.06 | > 40 | > 40 | 20.9 | – | – | – | – | – | – | – | – | – |
| CCN(CC)c1ccc2cc(C(=O)c3ccc(N4CCN(C(=O)CN5CCN(CC(=O)c6ccccc6)CC5)CC4)cc3)oc2c1 | 3.12 | 4.03 | 12.6 | 34.5 | 27.1 | 53.8 | – | – | – | – | – | – | – | – | – |
| CCN(CC)c1ccc2cc(C(=O)c3ccc(N4CCN(C(=O)CN5CCNCC5)CC4)cc3)oc2c1 | 1.35 | 1.22 | 0.32 | 5.34 | 1.87 | > 100 | – | – | – | – | – | – | – | – | – |
| CCN(CC)c1ccc2cc(C(=O)c3ccc(N4CCN(C(=O)CN5CCN(S(=O)(=O)c6ccc(C#N)cc6)CC5)CC4)cc3)oc2c1 | 8.47 | > 40 | > 40 | > 40 | 36.4 | 44.1 | – | – | – | – | – | – | – | – | – |
